Results on two compounds are retold here after US12558383B2, “American cockroach extract, preparation thereof, preparation methods therefor and applications thereof” (SICHUAN GOOD DOCTOR PANXI PHARMACEUTICAL CO., LTD, priority 2019, dated 2026).

Marks after values point to notes of the source that are not given here.

The subject of test [1] is IL-6 release, LPS induced mouse macrophages (RAW264.7). The experiment in a line: IL-6 release of LPS-stimulated RAW264.7 macrophages (ELISA). In kind it is cell-based. Conditions: positive drug andrographolide group; LPS 1 μg/mL, IL-6 at 4 h; n=3. Here is the method: (§1) Based on TNF-a-IL-6/iNOS-NO inflammatory signal pathway, the regulatory effects of drugs MLG, MLP and MLX on LPS induced inflammation of mouse macrophages (RAW264.7) were evaluated.
(§2) The original solution of drugs MLG, MLP and MLX was diluted by 80 times, 120 times and 160 times, respectively, incubated with cells for 12 h in advance, and used to stimulate cells to induce inflammation by a final concentration of 1 μg/ml LPS. Enzyme linked immunosorbent assay (ELISA) and Griess method were used to detect the release amount of TNF-α at 50 min, and IL-6 at 4 h and NO at 12 h upon LPS stimulation.
(§3) The original solution of drugs MLG, MLP and MLX was diluted by 80 times, 120 times and 160 times respectively, incubated with cells for 12 hours in advance, and then added with 1 μg/mL LPS to stimulate cell inflammation. […]
(§4) All indexes were tested strictly in accordance with the instructions of kits. Finally, the absorbance value at the specific wavelengths were detected on an enzyme labeling instrument, and the content of indexes of each sample were calculated according to the standard curve prepared by the same method. If the absorbance value is lower than the absorbance value of the sample at the lower limit of the standard curve, it is counted as lower than the relevant value, and the relevant statistics are calculated as 0 mean and 0 variance.
(In an ELISA, binding on a coated surface is turned into a signal by an enzyme label.)

The test system of test [2] is NO release, LPS induced mouse macrophages (RAW264.7). Description: NO release of LPS-stimulated RAW264.7 macrophages (Griess method). It counts as cell-based. The conditions noted are these: positive drug andrographolide group; LPS 1 μg/mL, NO at 12 h; n=3. Here is the method: as §1, §2, §3, §4
For test [3], the system named is TNF-α release, LPS induced mouse macrophages (RAW264.7). The experiment in a line: TNF-α release of LPS-stimulated RAW264.7 macrophages (ELISA). It counts as cell-based. The conditions noted are these: positive drug andrographolide group; LPS 1 μg/mL, TNF-α at 50 min; n=3. Here is the method: as §1, §2, §3, §4
The test system of test [4] is skin capillary permeability induced by xylene in mice. The experiment in a line: Increase of skin capillary permeability induced by xylene in mice (Evans blue). In kind it is in vivo. Conditions: extracts 2 mL/kg intragastric, dexamethasone 0.375 mg/kg, once a day 7 times. The procedure: Fifty mice weighing 18-22 g were randomly divided into five groups according to their body weights: MLX, MLG and MLP test groups. […] One hour after the last administration, various mice were injected with 0.5% Evans blue normal saline solution by 0.1 ml/10 g bw via caudal vein, and then xylene were dropped by 30 μL/per mouse on the abdominal skin depilated 24 hours in advance. After 20 minutes, the mice were killed by removing the cervical vertebra. The blue stained skin on the abdomen was cut off, and cut into pieces with surgical scissors, placed into a test tube with a plug, added with and soaked in 5 ml of acetone normal saline (7:3), placed in the dark for 72 hours, and centrifuged at 3000 r/min for 10 minutes to obtain a supernatant. Colorimetric detection was performed at the wavelength of 590 nm on a spectral scanning multifunctional reader to measure the absorbance (OD value). The permeability is represented by OD value, and the results are statistically compared.

Test [5] deals with cotton ball granuloma in mice. Description: Cotton ball granuloma in mice. It counts as in vivo. Conditions: extracts 2 mL/kg, dexamethasone 0.2 mg/kg, 7 consecutive days, n=10. Here is the method:
Fifty mice weighing 18-22 g were taken, 10/group, half male and half female. The mice were fixed, and disinfected on the chest with iodine. Iodine was removed with 75% alcohol cotton ball. A small hole was cut in the chest, 20 mg high-pressure sterilized cotton ball was implanted into the armpit subcutaneously from the incision with ophthalmic forceps, and then the skin was sutured. […] The above groups were administrated for 7 consecutive days. Before the end of the test on the 8th day, the body weight was measured, then the mice were killed by taking off the cervical vertebra. The implanted cotton ball was taken out together with the surrounding connective tissue, removed of the adipose tissue, wet weighted, placed into the oven at 60° C. for 24 hours, and weighed on a precision balance. The weight of granuloma was obtained by subtracting the original weight of cotton ball from the weighed weight, and the comparison and statistical analysis between groups were carried out.

`C=C1CC[C@@H]2[C@](C)(CO)[C@H](O)CC[C@@]2(C)[C@@H]1C/C=C1/C(=O)OC[C@H]1O` [Andro., andrographolide] yielded an IL-6 in test [1] of 286.07 ± 47.81 pg/mL. In test [2], this compound showed an NO of 1.86 ± 0.34 µM. Moreover, the TNF-α in test [3] came to 592.26 ± 45.7 pg/mL.

Take `C[C@@H]1C[C@H]2[C@@H]3CCC4=CC(=O)C=C[C@]4(C)[C@@]3(F)[C@@H](O)C[C@]2(C)[C@@]1(O)C(=O)CO` [dexamethasone]: the inhibition at 0.375 mg/kg in test [4] (Mus musculus, po, 168 h, n=10, read-out: Inhibitory rate) is more than 80%. In test [4] (n=10), this compound registered an Inhibitory rate of 80.7%. In test [5], the “Dry weigh of granuloma” value is recorded as 35.63 ± 8.38**^ mg and the “Wet weigh of granuloma” value is 252.3 ± 33.6 mg.
